Patent US20180188338A1, “Nuclear Spin Polarization Enhancing Method Through Dynamic Nuclear Polarization by Using Soluble Pentacene” (RIKEN, priority 2015, published 2018)

Assay: confirmation of dissolution of the pentacene derivative in the solvent
Format: physicochemical
Protocol: Herein, all samples are compositions containing no test compound and including the pentacene derivative and/or the salt thereof and the solvent.
6,13-Diphenylpentacene (0.4 mg, produced by Sigma-Aldrich Co., Ltd.) represented by the following formula was prepared as the pentacene derivative represented by formula (A), and dissolved in a mixed liquid of water and deuterated ethanol (2 mL, pure water:ethanol=1:9% by mass) as the solvent, thereby preparing a sample.
6,13-Diphenylpentacene (0.5 mg) represented by the above formula, as the pentacene derivative represented by formula (A), was dissolved in a mixed liquid of benzene and polystyrene (1 mL, benzene:polystyrene=5:5% by mass) as the solvent, thereby preparing a sample.
6,13-Diphenylpentacene (0.5 mg) represented by the above formula, as the pentacene derivative represented by formula (A), was dissolved in a mixed liquid of benzene and deuterated toluene (1 mL, benzene:deuterated toluene=1:9% by mass) as the solvent, thereby preparing a sample.
6,13-Dibiphenylpentacene (0.4 mg, produced by Luminescence Technology Crop.) represented by the following formula, as the pentacene derivative represented by formula (A), was dissolved in a mixed liquid of benzene and deuterated toluene (2 mL, benzene:deuterated toluene=1:9% by mass) as the solvent, thereby preparing a sample.
6,13-Bis[(triethylsilyl)ethynyl]pentacene (0.4 mg, produced by Sigma-Aldrich Co., Ltd.) represented by the following formula, as the pentacene derivative represented by formula (A), was dissolved in a mixed liquid of benzene and polystyrene (2 mL, benzene:polystyrene=5:5% by mass) as the solvent, thereby preparing a sample.
6,13-Bis[(triisopropylsilyl)ethynyl]pentacene (0.4 mg, produced by Tokyo Chemical Industry Co., Ltd.) represented by the following formula, as the pentacene derivative represented by formula (A), was dissolved in a mixed liquid of benzene and polystyrene (2 mL, benzene:polystyrene=5:5% by mass) as the solvent, thereby preparing a sample.
Pentacene (0.4 mg, produced by Sigma-Aldrich Co., Ltd.) represented by the following formula, and a mixed liquid of benzene and deuterated toluene (2 mL, benzene:deuterated toluene=1:9% by mass) as the solvent were mixed, thereby preparing a composition for NMR measurement.

[1] = 0.4 mg in 2 mL mixed liquid of benzene and polystyrene (5:5 by mass)
[2] = 0.4 mg in 2 mL mixed liquid of benzene and deuterated toluene (1:9 by mass)

Row | Structure (SMILES) | dissolution in the solvent [1] | dissolution in the solvent [2] | also measured
1 | CC[Si](C#Cc1c2cc3ccccc3cc2c(C#C[Si](CC)(CC)CC)c2cc3ccccc3cc12)(CC)CC [6,13-bis[(triethylsilyl)ethynyl]pentacene] | completely dissolved |  | 
2 | CC(C)[Si](C#Cc1c2cc3ccccc3cc2c(C#C[Si](C(C)C)(C(C)C)C(C)C)c2cc3ccccc3cc12)(C(C)C)C(C)C [6,13-bis[(triisopropylsilyl)ethynyl]pentacene] | completely dissolved |  | 
3 | c1ccc(-c2ccc(-c3c4cc5ccccc5cc4c(-c4ccc(-c5ccccc5)cc4)c4cc5ccccc5cc34)cc2)cc1 [6,13-dibiphenylpentacene] |  | completely dissolved | 
4 | c1ccc(-c2c3cc4ccccc4cc3c(-c3ccccc3)c3cc4ccccc4cc23)cc1 [6,13-diphenylpentacene] |  |  | dissolution in the solvent (0.4 mg in 2 mL mixed liquid of water and deuterated ethanol (1:9 by mass)): completely dissolved; dissolution in the solvent (0.5 mg in 1 mL mixed liquid of benzene and deuterated toluene (1:9 by mass)): completely dissolved; dissolution in the solvent (0.5 mg in 1 mL mixed liquid of benzene and polystyrene (5:5 by mass)): completely dissolved
5 | c1ccc2cc3cc4cc5ccccc5cc4cc3cc2c1 [pentacene, Pentacene] |  | not almost dissolved | 
